# Patent publication US7771967B2, “Nucleic acid encoding apolipoprotein E-I3” (The J. David Gladstone Institutes, priority 2006, dated 2010)
# How the values were obtained:
# [1] = Kainic acid injection, seizure activity in mice; type: in vivo, mouse; conditions: 25 mg/kg intraperitoneally, wildtype and human apoE3 or apoE4 knock-in mice, all mice
# Protocol: (§1) Kainic acid injections. Kainic acid crosses the blood-brain barrier and induces excitotoxic CNS injury, particularly in the hippocampus and neocortex. Wildtype and human apoE3 or apoE4 knock-in mice at 4-6 months of age were injected intraperitoneally with kainic acid (Sigma) dissolved in saline (0.9%) at 25 mg/kg body weight in one dose, as described. Within ˜15 min, all mice developed seizures. Seizure activity was assessed as described. […] Mice were killed 1-6 days after the injection of kainic acid.
# apoE-I3 mRNA = assay: qRT-PCR of apoE-I3 in hippocampus and cortex of kainic acid-treated mice; type: in vivo, mouse; conditions: human apoE knock-in mice, n=3
# Protocol: ApoE-I3 and apoE mRNA levels in different samples were determined in duplicate by quantitative fluorogenic reverse transcription-PCR (qRT-PCR) using GAPDH mRNA as an internal control. RT reactions were performed with Superscript First-strand Synthesis System Kits (Invitrogen, Carlsbad, Calif.) as described earlier. qRT-PCR reactions consisted of 10 μl of diluted cDNA reaction mixture (equivalent to 4.0 ng of RNA template), 12.5 μl of SYBR Green PCR master mix (Applied Biosystems), and 300 nM of each forward and backward primer in a final volume of 25 μl. Serial dilution of pooled cDNA samples from all cells or tissues were used to generate standard curves to determine the relative levels of specific mRNAs in individual samples. The apoE-I3 mRNA levels were then calculated and normalized to the internal GAPDH mRNA standards.
# as §1
# Preparation of mouse brain tissues. […]
smiles,measurement,setting,value
"C=C(C)[C@H]1CN[C@H](C(=O)O)[C@H]1CC(=O)O [kainic acid, Kainic acid]",time from injection to seizures,[1],≤ 15 min
same,increase of apoE-I3 expression (qRT-PCR),apoE-I3 mRNA; cortex,not in the cortex
same,increase of apoE-I3 expression (qRT-PCR),apoE-I3 mRNA; hippocampus,twofold
